Experimental data as given in patent publication US4748153A, “Compounds having somatostatin-like activity useful as local anti-inflammatory agents” (Merck & Co., Inc., priority 1987, dated 1988).
Residues, ends and D or L forms follow the SMILES beside them.

Key:
[1] = system: cellular proliferation (granuloma); test: Pellet granuloma assay, compounds administered subcutaneously as saline injections (Assay 3); format: in vivo, rats (Charles River-CD)
Experimental: (§1) Male rats (Charles River-CD) of about 150-160 grams in weight were subcutaneously implanted in the abdominal area with two pellets each. Five animals were used per group. The pellets used were preweighed and all used in a given assay were ±1 mg from one another. The compounds were dissolved in absolute ethanol and the indicated dose applied to each pellet in 0.2 ml. The alcohol was removed in vacuo overnight. Just prior to implantation, each pellet was moistened with 0.2 ml of 0.9% saline containing 1 mg each of penicillin and streptomycin. After seven days, the pellets were dissected out together with adhering granulomatous tissue. After drying in a vacuum oven overnight at 60°-65° C., the pellets were weighed. The difference in weight between the original pellet weight and the implanted pellet weight was used as a measure of cellular proliferation (granuloma). The lower the net weight, the more anti-inflammatory activity.
Following the procedure described above for Assau 1, additional tests were conducted except that the compounds were administered subcutaneously as saline injections. The tests were carried out on six animals per group and the results obtained are shown below in Table III.

[2] = system: cellular proliferation (granuloma); test: Pellet granuloma assay, compound applied locally to subcutaneously implanted pellets (Assays 1, 2, 4); format: in vivo, rats (Charles River-CD); details: for Body Wt. Change: Assay 2; for Granulosimer Net weight: Assay 1, six animals per group, 7 days, ± 2 S.E. of mean
Experimental: The assay method employed to test the Formula I, II, III, IV and V compounds as local anti-inflammatory agents is a modification of the method described by S. L. Steelman, et al. [Steroids, 1, 163 (1963)] as follows:
as §1
Following the procedure of the Assay Method described above, somatostatin (SRIF) was tested for its anti-inflammatory activity. The structure of somatostatin is: [drawing 5]
Six animals per group were used in this test and the results obtained are shown in Table I below wherein hydrocortisone was used as a positive control:
The results obtained following the Assay Method described above using Compound 8 of Formula I are shown below in Table II wherein hydrocortisone was used as a positive control.
(§2) Following the same procedure as described above for Assay 1, additional compounds were tested for local; i.e., topical, anti-inflammatory activity. […] In Table IV, the potency of each compound tested relative to that of somatostatin is also shown, the somatostatin (SRIF) potency being assigned a value of 1 and based upon its inhibition of growth hormone, insulin and glucogen secretion.

[3] = system: inhibition of growth hormone, insulin and glucogen secretion; test: Potency relative to somatostatin (SRIF); details: SRIF assigned a value of 1, based upon inhibition of growth hormone
Experimental: as §2

[4] = administered subcutaneously, Table III

C[C@]12CCC(=O)C=C1CC[C@@H]1[C@@H]2[C@@H](O)C[C@@]2(C)[C@H]1CC[C@]2(O)C(=O)CO [Hydrocortisone, hydrocortisone]
activity (in words) [1, 4]: typical activity
Body Wt. Change ([2]; 200 mcg/pellet): +44 gm
Granulosimer Net weight ([2]; 300 mcg/pellet): 24 ± 2 mg
Body Wt. Change ([2]; 1000 mcg/pellet): +41 gm

C[C@@H](O)[C@@H]1NC(=O)[C@H](CCCCN)NC(=O)[C@@H](Cc2c[nH]c3ccccc23)NC(=O)[C@H](Cc2ccccc2)NC(=O)[C@@H]2CCCN2C(=O)[C@H](Cc2ccccc2)NC1=O [13/II, Cyclo-(Pro-Phe-D-Trp-Lys-Thr-Phe)] (HELM PEPTIDE1{P.F.[dW].K.T.F}$PEPTIDE1,PEPTIDE1,1:R1-6:R2$$$V2.0)
Potency Relative to Somatostatin (SRIF) [3]: 6

C[C@@H]1NC(=O)[C@H](CO)NC(=O)[C@H](CCCCN)NC(=O)[C@@H](Cc2c[nH]c3ccccc23)NC(=O)[C@H](Cc2c[nH]cn2)NC(=O)[C@H](Cc2ccccc2)N(C)C1=O [11/I, Cyclo-(Ser-Ala-N-Me-Phe-His-D-Trp-Lys)] (HELM PEPTIDE1{A.[meF].H.[dW].K.S}$PEPTIDE1,PEPTIDE1,1:R1-6:R2$$$V2.0)
Potency Relative to Somatostatin (SRIF) [3]: 200

C[C@H](N)C(=O)NCC(=O)N[C@H]1CSSC[C@@H](C(=O)O)NC(=O)[C@H](CO)NC(=O)[C@H]([C@@H](C)O)NC(=O)[C@H](Cc2ccccc2)NC(=O)[C@H]([C@@H](C)O)NC(=O)[C@H](CCCCN)NC(=O)[C@H](Cc2c[nH]c3ccccc23)NC(=O)[C@H](Cc2ccccc2)NC(=O)[C@H](Cc2ccccc2)NC(=O)[C@H](CC(N)=O)NC(=O)[C@H](CCCCN)NC1=O [SRIF, somatostatin]
Granulosimer Net weight ([2]; 1500 mcg/pellet): 25 ± 1 mg
anti-inflammatory activity (in words) ([2]; Assay 1, Table I, on pellet): effective anti-inflammatory agent
Potency Relative to Somatostatin (SRIF) [3]: 1

CC(C)[C@@H]1NC(=O)[C@H](CCCCN)NC(=O)[C@@H](Cc2c[nH]c3ccccc23)NC(=O)[C@H](Cc2ccc(O)cc2)NC(=O)[C@H](C)N(C)C(=O)[C@H](Cc2ccccc2)NC1=O [Compound 8 of Formula I, Cyclo-(N-Me-Ala-Tyr-D-Trp-Lys-Val-Phe)]
effect on adrenal weight (in words) [1, 4]: slight decrease in the adrenal weight
anti-inflammatory activity (in words) ([1]; administered systemically, i.e., subcutaneously): no anti-inflammatory activity
Avg. Adrenal wt. ([1]; daily dose 200 mcg subcutaneously, ± S.E. of mean): 36 ± 2 mg
Body Wt. Change ([2]; 10 mcg/pellet): +43 gm
Body Wt. Change ([2]; 100 mcg/pellet): +40 gm
anti-inflammatory activity (in words) ([2]; doses of 100-200 micrograms per pellet, Table II): significant activity
Potency Relative to Somatostatin (SRIF) [3]: 50-100

CC(C)[C@@H]1NC(=O)[C@H](CCCCN)NC(=O)[C@@H](Cc2c[nH]c3ccccc23)NC(=O)[C@H](Cc2ccc(O)cc2)NC(=O)[C@H](C)N(C)C(=O)[C@H](Cc2c[nH]c3ccccc23)NC1=O [9/I, Cyclo-(N-Me-Ala-Tyr-D-Trp-Lys-Val-Trp)] (HELM PEPTIDE1{K.V.W.[meA].Y.[dW]}$PEPTIDE1,PEPTIDE1,1:R1-6:R2$$$V2.0)
Potency Relative to Somatostatin (SRIF) [3]: 20-35

CC(C)[C@@H]1NC(=O)[C@H](CCCCN)NC(=O)[C@H](Cc2c[nH]c3ccccc23)NC(=O)[C@H](Cc2ccc(O)cc2)NC(=O)[C@H](C)N(C)C(=O)[C@H](Cc2ccccc2)NC1=O [10/I, Cyclo-(N-Me-Ala-Tyr-L-Trp-Lys-Val-Phe)]
Potency Relative to Somatostatin (SRIF) [3]: 50
